Laboratory results as given in publication doi:10.1101/2024.02.15.580468v1, “Morphing Cholinesterase Inhibitor Amiridine into Multipotent Drugs for the Treatment of Alzheimer’s Disease” (biorxiv, 2024).
Where two headings read alike, the source gives them in different places.

What was measured:
in vitro [1] = assay: in vitro; design: PAMPA blood-brain barrier permeability, effective permeability Pe; details: PAMPA-BBB Pe
Excerpt: page 5 / Table S2. Cytotoxicity profiles of 5–7 on SH-SY5Y cell line and predictions to BBB penetration by PAMPA results. / Pe (10^-6 cm.s^-1)

in vitro [2] = assay: in vitro; design: MTT viability assay, HepG2 cells; details: human, hepg2 cells; read-out: HepG2 IC50
Procedure: (§1) The cytotoxic profile of 5–7 was carried through the use of the MTT (3-(4,5-dimethylthiazol-2-yl)-2,5-diphenyltetrazolium bromide) assay on human neuroblastoma (SH-SY5Y) and hepatocellular carcinoma (HepG2) cell lines, following established protocols. The cytotoxicity was assessed on SH-SY5Y cells in undifferentiated and in differentiated form. The data obtained from the measurements on the undifferentiated SH-SY5Y and HepG2 cells are summarized in Table 1 for 5c-d, 7c and 7g, as well as for the reference compounds amiridine hydrochloride and THA. Additional data can be found in Supplementary Information (Table S2 and Fig. S1). The both cell lines were cultured according to ECACC recommended conditions and seeded into 96-well plates in 100 µL and density of 8000 per well. For evaluation of cytotoxicity of the differentiated form the SH-SY5Y cells also underwent 9-day differentiation protocol into mature neurons according to Riegerová et al .. The tested compounds were dissolved in DMSO (Sigma Aldrich) or in phosphate buffer saline (PBS, Sigma Aldrich) and subsequently in the growth medium - high glucose Dulbecco’s Modified Eagle’s medium (DMEM; Sigma-Aldrich, D6429). […] Then, the differentiated SH-SY5Y cells were treated with concentrations corresponding to IC50 values obtained from the cytotoxicity measurement using undifferentiated SH-SY5Y cells. Cells were exposed to a tested compound for 24 h. Then the medium was replaced by a medium containing 10 μM of MTT and cells were allowed to produce formazan for another approximately 3 h under surveillance. Thereafter, medium was aspirated and purple crystals of MTT formazan were dissolved in 100 μL DMSO under shaking. Cell viability was assessed spectrophotometrically by the amount of formazan produced. Absorbance was measured at 570 nm with 650 nm reference wavelength on Spark (Tecan Group Ltd, Switzerland). The IC50 value was then calculated from the control-subtracted triplicates using non-linear regression (four parameters) of GraphPad Prism 9 software. Final IC50 and SEM values were obtained as a mean of three independent measurements.

in vitro [3] = assay: in vitro; design: MTT viability assay, undifferentiated SH-SY5Y cells; details: human, undifferentiated sh-sy5y cells, read-out: SH-SY5Y IC50
Procedure: as §1

[4] = target: T1, hAChE (human recombinant acetylcholinesterase) (Homo sapiens, UniProt P22303); assay: biochemical; design: modified Ellman assay, cholinesterase activity, absorbance at 412 nm
T1 construct: gene ACHE; recombinant enzyme, purchased from Sigma-Aldrich
T1 sequence (P22303 32-614): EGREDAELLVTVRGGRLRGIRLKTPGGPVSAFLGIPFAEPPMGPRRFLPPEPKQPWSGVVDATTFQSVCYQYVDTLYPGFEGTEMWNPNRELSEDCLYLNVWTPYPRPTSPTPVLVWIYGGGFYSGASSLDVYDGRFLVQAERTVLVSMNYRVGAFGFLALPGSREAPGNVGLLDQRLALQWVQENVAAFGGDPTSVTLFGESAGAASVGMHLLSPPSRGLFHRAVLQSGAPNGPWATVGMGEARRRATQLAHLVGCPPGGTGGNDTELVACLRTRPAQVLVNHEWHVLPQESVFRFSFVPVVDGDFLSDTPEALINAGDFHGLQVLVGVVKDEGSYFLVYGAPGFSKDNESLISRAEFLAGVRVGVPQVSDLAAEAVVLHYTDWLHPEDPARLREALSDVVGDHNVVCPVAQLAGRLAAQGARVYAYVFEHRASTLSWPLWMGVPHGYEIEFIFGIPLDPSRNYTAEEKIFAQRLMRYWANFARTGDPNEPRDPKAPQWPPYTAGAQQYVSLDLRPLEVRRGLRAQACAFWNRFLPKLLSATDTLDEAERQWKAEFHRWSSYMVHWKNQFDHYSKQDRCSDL
Procedure: (§2) The inhibitory activities of 5–7 and all the reference compounds were determined using modified Ellman’s method against human recombinant AChE (hAChE, E.C. 3.1.1.7, purchased from Sigma-Aldrich, Prague, Czech Republic) and human plasmatic BChE (hBChE, E.C. 3.1.1.8, purchased from Sigma-Aldrich, Prague, Czech Republic). The results are expressed as IC50 (the concentration of the compound that is required to reduce 50% of cholinesterase activity). Other used compounds – phosphate buffer solution (PBS, pH = 7.4), 5,5’-dithio-bis(2-nitrobenzoic) acid (Ellman’s reagent, DTNB), acetylthiocholine (ATCh) and butyrylthiocholine (BTCh) were also commercially available and were purchased from Sigma-Aldrich (Prague, Czech Republic). During the measurement, 96-well microplates from polystyrene (ThermoFisher Scientific, Waltham, MA, USA) were used. The solutions of corresponding enzyme in PBS were prepared up to final activity 0.002 U/µL. The assay medium (100 µL) consisted of cholinesterase (10 µL), DTNB (20 µL of 0.01 M solution) and PBS (40 µL of 0.1 M solution). The solutions of the tested compounds (10 µL of different concentrations) were pre- incubated for 5 minutes in the assay medium and then solution of substrate (20 µL of 0.01 M ATCh or BTCh iodide solution) was added to initiate the reaction. The increase of absorbance was measured at 412 nm using Multimode microplate reader Synergy 2 (BioTek Inc., Winooski, VT, USA). For the calculation of the resulting measured activity (the percentage of inhibition I) following formula was used: [drawing 1] where ΔAi indicates absorbance change provided by adequate enzyme exposed to corresponding inhibitor and ΔA0 indicates absorbance change when a solution of PBS was added instead of a solution of inhibitor. Software Microsoft Excel (Redmont, WA, USA) and GraphPad Prism version 5.02 for Windows (GraphPad Software, San Diego, CA, USA) were used for the statistical data evaluation. ChEs are enzymes responsible for the hydrolysis and metabolism of various endogenous and exogenous substrates, that are broadly studied in association with disease conditions like myasthenia gravis or AD. The primary attention in the development of AD drugs has been paid to AChE inhibitors. Nevertheless, there is growing interest in nonselective or BChE-selective inhibitors due to the compensatory role of BChE when AChE levels are depleted during the progression of AD [23]. Selective BChE inhibitors may be beneficial for patients in moderate-to-severe stages of AD [23, 24]. […] Accordingly, we assessed the inhibition activities of these novel compounds against human recombinant AChE (hAChE) and human serum BChE (hBChE) following a modified spectrophotometric protocol developed by Ellman et al.. […] Complete data are available in the Supplementary Information (Table S1), including the inhibition percentages for all derivatives. Amiridine hydrochloride (amiridine.HCl) and tacrine (THA) were used as reference compounds. […] Only a superficial structure-activity relationship for AChE inhibition can be drawn from the obtained data. […] The presence of any substituent on the benzothiazole core enhanced anti-AChE activity, with the best-tolerated position for the substituent being 6 for derivatives with halogen atoms (7b-d with bromine or 7g-h with [compound left out]. h

[5] = target: T2, hBChE (human serum / plasmatic butyrylcholinesterase) (Homo sapiens, UniProt P06276); assay: biochemical; design: modified Ellman assay, cholinesterase activity, absorbance at 412 nm
T2 construct: gene BCHE; native enzyme from human plasma/serum, purchased from Sigma-Aldrich
T2 sequence (P06276 29-602): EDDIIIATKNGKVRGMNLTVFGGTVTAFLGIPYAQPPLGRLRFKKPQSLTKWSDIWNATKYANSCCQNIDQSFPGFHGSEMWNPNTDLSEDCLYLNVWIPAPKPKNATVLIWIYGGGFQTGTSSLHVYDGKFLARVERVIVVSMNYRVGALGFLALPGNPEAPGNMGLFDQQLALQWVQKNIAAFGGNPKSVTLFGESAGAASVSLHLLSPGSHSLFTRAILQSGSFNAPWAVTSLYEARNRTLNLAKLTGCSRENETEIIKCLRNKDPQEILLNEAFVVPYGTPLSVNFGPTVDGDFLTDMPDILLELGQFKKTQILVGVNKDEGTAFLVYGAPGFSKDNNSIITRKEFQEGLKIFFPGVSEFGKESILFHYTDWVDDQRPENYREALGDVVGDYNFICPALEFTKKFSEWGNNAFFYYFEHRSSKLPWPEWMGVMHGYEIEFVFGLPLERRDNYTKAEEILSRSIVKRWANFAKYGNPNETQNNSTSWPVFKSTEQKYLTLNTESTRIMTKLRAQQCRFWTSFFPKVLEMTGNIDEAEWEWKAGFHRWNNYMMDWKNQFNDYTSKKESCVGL
Procedure: as §2

[6] = target: T2, hBChE (human serum / plasmatic butyrylcholinesterase); assay: modified Ellman assay, […] nm; format: biochemical
in vitro [7] = assay: in vitro; design: PAMPA blood-brain barrier permeability, effective permeability Pe; details: PAMPA-BBB Pe; remark: listed apart in the source
Excerpt: page 4 / Table S1. Inhibition activities of 5–7 and reference compounds (amiridine hydrochloride and THA). hAChE ± SEM^a hBChE ± SEM^a / Pe (10^-6 cm.s^-1)

Row | Compound | Papp (in vitro [1]) [×10⁻⁶ cm/s] | CC50 at 24 h (in vitro [2]) [µM] | CC50 at 24 h (in vitro [3]) [µM] | inhibition at 1 µM [4] [%] | inhibition at 1 µM [5] [%] | IC50 [6] [µM] | Papp (in vitro [7]) [×10⁻⁶ cm/s]
1 | O=C(CNc1nc2ccc([N+](=O)[O-])cc2s1)Nc1c2c(nc3c1CCC3)CCCC2 [7i, N-{1H,2H,3H,5H,6H,7H,8H-cyclopenta[b]quinolin-9-yl}-2-[(6-nitro-1,3-benzothiazol-2-yl)amino]acetamide] | 4.89 ± 1.5 | ≥ 200 | 91.3 ± 11 | 7.98 ± 0.99 | 0.93 ± 0.08 | – | –
2 | O=C(CNc1nc2ccc(Br)cc2s1)Nc1c2c(nc3c1CCC3)CCCC2 [7b, 2-[(6-bromo-1,3-benzothiazol-2-yl)amino]-N-{1H,2H,3H,5H,6H,7H,8H-cyclopenta[b]quinolin-9-yl}acetamide] | 3.74 ± 0.36 | ≥ 200 | ≥ 200 | 18.5 ± 0.37 | 10.83 ± 0.09 | – | –
3 | O=C(CNc1nc2cc(Cl)ccc2s1)Nc1c2c(nc3c1CCC3)CCCC2 [7g, 2-[(5-chloro-1,3-benzothiazol-2-yl)amino]-N-{1H,2H,3H,5H,6H,7H,8H-cyclopenta[b]quinolin-9-yl}acetamide] | 2.8 ± 0.79 | ≥ 200 | 98.2 ± 5.74 | 11.9 ± 0.74 | 26.5 ± 1.45 | 11 ± 1.2 | –
4 | O=C(CNC12CC3CC(CC(C3)C1)C2)Nc1c2c(nc3c1CCC3)CCCC2 [5a] | – | 67.9 ± 1.12 | 74 ± 2.8 | 2.83 ± 0.49 | 14 ± 1.75 | – | 23.4 ± 1.86
5 | Cc1c(C)c2c(c(C)c1O)CCC(C)(C(=O)NCC(=O)Nc1c3c(nc4c1CCC4)CCCC3)O2 (stereo not drawn) [compound 6, N-{1H,2H,3H,5H,6H,7H,8H-cyclopenta[b]quinolin-9-yl}-2-[(6-hydroxy-2,5,7,8-tetramethyl-3,4-dihydro-2H-1-benzopyran-2-yl)formamido]acetamide] | 15.9 ± 0.38 | – | ≥ 200 | 3.95 ± 0.25 | 21.5 ± 0.94 | – | –
6 | O=C(CNc1nc2cc(Br)ccc2s1)Nc1c2c(nc3c1CCC3)CCCC2 [7c, 2-[(5-bromo-1,3-benzothiazol-2-yl)amino]-N-{1H,2H,3H,5H,6H,7H,8H-cyclopenta[b]quinolin-9-yl}acetamide] | 2.13 ± 1.04 | 21.61 ± 0.21 | 17.7 ± 2.34 | 15.7 ± 1.17 | 25 ± 2.39 | 4.9 ± 0.4 | –
7 | N#Cc1ccc2sc(NCC(=O)Nc3c4c(nc5c3CCC5)CCCC4)nc2c1 [7e, 2-[(5-cyano-1,3-benzothiazol-2-yl)amino]-N-{1H,2H,3H,5H,6H,7H,8H-cyclopenta[b]quinolin-9-yl}acetamide] | 13.9 ± 1.26 | 26.4 ± 1.82 | 77.4 ± 4.54 | 13.3 ± 0.57 | 13.9 ± 0.6 | – | –
8 | Clc1nc2ccccc2s1 [7a, 2-chlorobenzothiazole] | 20.6 ± 0.44 | ≥ 200 | 72.3 ± 6.89 | 1.46 ± 0.17 | 7.19 ± 0.91 | – | –
9 | O=C(CNc1nc2cccc([N+](=O)[O-])c2s1)Nc1c2c(nc3c1CCC3)CCCC2 [7k, N-{1H,2H,3H,5H,6H,7H,8H-cyclopenta[b]quinolin-9-yl}-2-[(7-nitro-1,3-benzothiazol-2-yl)amino]acetamide] | 1.12 ± 0.62 | ≥ 200 | 51 ± 8.56 | 9.62 ± 0.41 | 4.47 ± 0.58 | – | –
10 | O=C(CNc1nc2c(Br)cccc2s1)Nc1c2c(nc3c1CCC3)CCCC2 [7d, 2-[(4-bromo-1,3-benzothiazol-2-yl)amino]-N-{1H,2H,3H,5H,6H,7H,8H-cyclopenta[b]quinolin-9-yl}acetamide] | 2.62 | 14.5 ± 1.84 | 111 ± 5.6 | 1.8 ± 0.33 | 6.73 ± 0.45 | – | –
11 | O=C(CNc1nc2cc([N+](=O)[O-])ccc2s1)Nc1c2c(nc3c1CCC3)CCCC2 [7j, N-{1H,2H,3H,5H,6H,7H,8H-cyclopenta[b]quinolin-9-yl}-2-[(5-nitro-1,3-benzothiazol-2-yl)amino]acetamide] | 1.83 ± 0.54 | 25.83 ± 0.25 | 93.7 ± 5.38 | 8.2 ± 0.41 | 8.03 ± 1.37 | – | –
12 | CSc1ccc2nc(NCC(=O)Nc3c4c(nc5c3CCC5)CCCC4)sc2c1 [7l, N-{1H,2H,3H,5H,6H,7H,8H-cyclopenta[b]quinolin-9-yl}-2-{[6-(methylsulfanyl)-1,3-benzothiazol-2-yl]amino}acetamide] | 2.65 ± 0.01 | ≥ 200 | 173 ± 17.6 | 7.56 ± 0.38 | 6.05 ± 1.77 | – | –
13 | CC12CC3CC(C)(C1)CC(NCC(=O)Nc1c4c(nc5c1CCC5)CCCC4)(C3)C2 [5b] | 7.63 ± 0.09 | 19.5 ± 1.72 | 31 ± 2.76 | 9.13 ± 0.48 | 18.6 ± 0.65 | – | –
